Several values for one entry are separate records, joined by “and”; a condition that tells them apart may be missing. Equal entries are not always repeated.
Key:
ALDH1A3 = molecular target: T1, ALDH1A3 (Homo sapiens, UniProt P47895); assay: IC50 and Ki evaluation, enzymatic inhibition with acetaldehyde; format: biochemical
T1 construct: E. coli BL21 (DE3) were transformed with the full-length expression vector of each isoform; His-tag; made in house; host or cells: E. coli BL21 (DE3)
T1 sequence (P47895 1-512): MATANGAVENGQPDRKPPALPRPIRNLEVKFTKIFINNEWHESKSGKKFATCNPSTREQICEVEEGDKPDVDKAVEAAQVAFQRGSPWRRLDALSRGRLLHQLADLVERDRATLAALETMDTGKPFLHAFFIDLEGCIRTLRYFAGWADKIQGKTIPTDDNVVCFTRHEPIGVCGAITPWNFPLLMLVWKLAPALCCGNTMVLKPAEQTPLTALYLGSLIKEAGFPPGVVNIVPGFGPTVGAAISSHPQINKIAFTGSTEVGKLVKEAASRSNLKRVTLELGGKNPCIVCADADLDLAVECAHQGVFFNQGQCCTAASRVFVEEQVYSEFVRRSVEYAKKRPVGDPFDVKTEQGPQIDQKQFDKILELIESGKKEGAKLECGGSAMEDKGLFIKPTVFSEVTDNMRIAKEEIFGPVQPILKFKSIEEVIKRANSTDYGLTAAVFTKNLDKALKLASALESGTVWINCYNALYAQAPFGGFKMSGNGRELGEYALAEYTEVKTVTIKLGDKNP
Procedure: (§1) Initially, the inhibitory activities of our fluorescent probes were screened at a fixed concentration of 50 μM using a Tecan Sunrise 96 Multiplate Reader with Greiner Bio-One 96-UV-Transparent Microplates. The analysis was performed in triplicate in a total volume of 100 μl per well containing 20 mM Tris HCl pH 8.0, 1 mM β-mercaptoethanol, 150 mM KCl, 500 μM NAD^+, […], 2.8 μM hALDH1A and 20 mM acetaldehyde. Afterwards, the inhibitory potency of the fluorescent probes was further investigated, evaluating the IC50 parameter. The enzymatic inhibition assays were performed in triplicate in a total volume of 100 μl per well containing 20 mM Tris HCl pH 8.0, 1 mM β-mercaptoethanol, 150 mM KCl, 500 μM NAD^+, 2.8 μM hALDH1A and 20 mM acetaldehyde in the presence of different probe concentrations, from 200 μM to 1.5625 μM. The DMSO final concentration allowed was up to 15%. Only for ALDH1A3 in complex with Probe 10, the Ki affinity parameter was calculated by performing the analysis in triplicate in a total volume of 100 μl per well containing 20 mM Tris HCl pH 8.0, 1 mM β-mercaptoethanol, 150 mM KCl, 500 μM NAD^+ and 2.8 μM ALDH1As. Due to chemical nature of Probe 10 and Probe 11, we set up the enzymatic assay assuming a competitive inhibition using different compounds concentration, from 200 μM to 1 μM, and different acetaldehyde concentrations, from 20 mM to 2.5 mM. Each reaction mix was preincubated for 10 min at 25 °C before the analysis. The catalytic activity was measured by monitoring the absorbance at 340 nm (εNADH = 6220 M^−^1 cm^−1) for 30 min at 25 °C and the inhibitory parameters were calculated by processing the raw data on SigmaPlot[53].

ALDH1A1 = molecular target: T2, ALDH1A1 (Homo sapiens, UniProt P00352); assay: Enzymatic inhibition assay with acetaldehyde; format: biochemical; settings: up to highest probe concentration
T2 construct: E. coli BL21 (DE3) were transformed with the full-length expression vector of each isoform; His-tag; made in house; host or cells: E. coli BL21 (DE3)
T2 sequence (P00352 1-501): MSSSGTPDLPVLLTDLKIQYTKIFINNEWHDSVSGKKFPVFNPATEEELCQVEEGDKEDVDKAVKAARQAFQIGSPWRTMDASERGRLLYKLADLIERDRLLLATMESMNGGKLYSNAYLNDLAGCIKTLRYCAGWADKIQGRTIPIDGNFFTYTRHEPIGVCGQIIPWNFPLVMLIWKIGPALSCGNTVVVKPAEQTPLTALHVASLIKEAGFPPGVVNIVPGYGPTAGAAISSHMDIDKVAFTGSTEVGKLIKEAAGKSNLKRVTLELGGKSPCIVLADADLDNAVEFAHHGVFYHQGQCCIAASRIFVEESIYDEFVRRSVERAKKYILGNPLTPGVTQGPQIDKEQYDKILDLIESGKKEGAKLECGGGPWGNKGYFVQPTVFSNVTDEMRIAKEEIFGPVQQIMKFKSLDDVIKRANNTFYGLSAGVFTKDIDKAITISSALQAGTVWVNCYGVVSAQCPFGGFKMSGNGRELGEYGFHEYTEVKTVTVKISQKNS
Procedure: as §1

U87MG glioblastoma cells = assay: Fluorescent microscopy of probe in cells; format: cell-based, human; settings: 10 µM; for fluorescence in cells: 2 h
Procedure: In total, 20,000 cells/ml of U87MG, HEK293T, hASTRO and 4T1 were seeded onto glass cover slips in 24-well plates. The cells incubated at 37 °C in a 5% CO2 atmosphere overnight. Cells were washed with 1 ml of PBS buffer two times, then a 10 μM solution of probes was added to each well for 2 h. For nuclei staining, 1 µg/ml of DAPI was added the last 15 min of treatment. The cover slips were removed and washed with PBS buffer, and fixed with 0.5 ml of 4% formaldehyde solution for 10 min. The cover slips were washed with 1 ml of PBS, then slides were prepared using Mounting Media (Merck Life Science). Fluorescence images were acquired using a Leica THUNDER Imager 3D Live Cell (Leica Microsystems, Wetzlar, Germany) microscope equipped with an S Fluor 40×/1.3 objective using the LAS X software.

[1] = Absorbance, emission and excitation wavelengths evaluation; format: physicochemical; settings: 10 µM in SEC buffer
Procedure: Fluorescent compounds were analyzed on a Tecan Spark to evaluate the correct parameters to further set the biochemical characterizations. The absorbance was evaluated in a range from 300 to 700 nm, with a wavelength step size of 5 nm. Based on the absorbance values, we settled a 3D fluorescence emission scan to evaluate the excitation and emission peaks. The analysis was conducted using the same buffer mix, as already described. The excitation range was set between 390 and 450 nm for both molecules, with a step size of 5 nm. The emission range was set between 485 and 700 nm for both molecules, with a step size of 5 nm. All these characterizations were performed on a Tecan Spark using Greiner Bio-One 96-UV-Transparent Microplates and the tests were carried out using a total volume of 100 μl for each well.

| SMILES | inhibition of ALDH1A3 (ALDH1A3) | mechanism of action (inhibition) (ALDH1A3) | Ki (ALDH1A3; acetaldehyde substrate, full competitive model) | inhibition of ALDH1A1 (ALDH1A1) | fluorescence in cells (U87MG glioblastoma cells) | If ROI (U87MG glioblastoma cells; U87-MG, 2 h (Fig. 5g)) | Abs [1] | Em [1] | Ex [1] |
| --- | --- | --- | --- | --- | --- | --- | --- | --- | --- |
| COc1cc(/C=C/C(O)=C/C(=O)/C=C/c2ccc(OCc3cn(CCOc4ccc(C=O)cc4)nn3)c(OC)c2)ccc1O [Probe 10] | strongly inhibited | competitive | 880 nM | Neither of the two other isozymes were inhibited | can determine fluorescence | 238.82 a.u. and 283.69 a.u. and 302.7 a.u. and 195.53 a.u. and 182.63 a.u. | 410 nm | 545 nm | 420 nm |
| CCOC(=O)Cn1cc(COc2ccc(/C=C/C(=O)/C=C(O)/C=C/c3ccc(O)c(OC)c3)cc2OC)nn1 [Probe 11] | no inhibitory effect |  |  | no inhibitory effect | fluorescence has been observed using Probe 11 only in U87MG cell lines |  | 410 nm | 545 nm | 420 nm |

From PMC9437101, “Curcumin-based-fluorescent probes targeting ALDH1A3 as a promising tool for glioblastoma precision surgery and early diagnosis” (Communications Biology, 2022)
